{"source": "patent US10206907B2", "about": "“Compounds useful for the treatment of degenerative and inflammatory diseases” (GALAPAGOS NV, priority 2008, dated 2019)", "key": {"[1]": {"target": "Recombinant human JAK1 catalytic domain (Homo sapiens (Human), UniProt P23458)", "sequence (P23458 850-1154)": "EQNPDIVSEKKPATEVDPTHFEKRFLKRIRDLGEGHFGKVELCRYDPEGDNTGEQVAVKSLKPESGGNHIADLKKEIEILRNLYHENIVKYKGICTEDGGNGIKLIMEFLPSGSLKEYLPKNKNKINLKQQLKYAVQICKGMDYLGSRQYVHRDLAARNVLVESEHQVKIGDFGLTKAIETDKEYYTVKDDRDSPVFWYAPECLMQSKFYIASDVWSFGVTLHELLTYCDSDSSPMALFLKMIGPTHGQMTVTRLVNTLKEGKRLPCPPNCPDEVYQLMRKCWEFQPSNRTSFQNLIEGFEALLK", "test": "JAK1 inhibition assay", "format": "biochemical", "outline": "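Radiometric assay read by scintillation counting after phosphoric-acid washes. Percent inhibition calculated from cpm relative to vehicle and 10 μM staurosporine control. IC50 derived from compound dose-dilution series.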"}, "MMP13 in SW1353 cells": {"tested_on": "MMP13 in SW1353 cells", "test": "OSM/IL-1β signaling assay (MMP13 levels in SW1353 cells);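 further: secreted MMP13 captured by antibody, activated with APMA and its activity read by fluorescence, inhibition scaled between vehicle-treated triggered wells (0%) and untriggered wells (100%)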", "format": "cell-based", "details": "Homo sapiens; SW1353 cells, OSM and IL-1β triggered, MMP13 levels 48 hours after triggering; read-out: MMP13 EC50"}, "[2]": {"test": "Microsomal stability, human liver microsomes", "format": "in vitro ADME", "details": "percentage of compound remaining after 60 minutes, 3 μM compound", "outline": "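Compound was incubated with liver microsomes plus an NADP+/glucose-6-phosphate/G6PDH/MgCl2 regenerating system at 37°C for 1 h. Reactions were stopped 1:1 with MeOH or ACN and analysed by LCMS.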"}, "[3]": {"target": "Recombinant human JAK2 catalytic domain (Homo sapiens (Human), UniProt O60674)", "sequence (O60674 808-1132)": "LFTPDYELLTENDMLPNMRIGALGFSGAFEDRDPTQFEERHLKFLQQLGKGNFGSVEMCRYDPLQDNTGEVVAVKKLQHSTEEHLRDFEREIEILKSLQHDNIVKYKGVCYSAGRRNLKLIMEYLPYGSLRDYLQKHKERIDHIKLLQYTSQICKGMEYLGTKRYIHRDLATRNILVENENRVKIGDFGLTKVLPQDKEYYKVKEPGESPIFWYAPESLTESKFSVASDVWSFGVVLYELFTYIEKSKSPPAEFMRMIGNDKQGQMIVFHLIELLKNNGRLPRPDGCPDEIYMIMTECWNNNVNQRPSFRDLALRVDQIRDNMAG", "test": "JAK2 inhibition assay", "format": "biochemical", "details": "semi-quantitative score", "outline": "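Radiometric kinase reactions ran for 90 min at 30 °C and were stopped with phosphoric acid, then washed and counted by scintillation. Percent inhibition was set relative to vehicle and to 10 μM staurosporine background. IC50 was derived from dose-dilution series.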"}, "[4]": {"target": "Recombinant human JAK3 catalytic domain (Homo sapiens (Human), UniProt P52333)", "sequence (P52333 781-1124)": "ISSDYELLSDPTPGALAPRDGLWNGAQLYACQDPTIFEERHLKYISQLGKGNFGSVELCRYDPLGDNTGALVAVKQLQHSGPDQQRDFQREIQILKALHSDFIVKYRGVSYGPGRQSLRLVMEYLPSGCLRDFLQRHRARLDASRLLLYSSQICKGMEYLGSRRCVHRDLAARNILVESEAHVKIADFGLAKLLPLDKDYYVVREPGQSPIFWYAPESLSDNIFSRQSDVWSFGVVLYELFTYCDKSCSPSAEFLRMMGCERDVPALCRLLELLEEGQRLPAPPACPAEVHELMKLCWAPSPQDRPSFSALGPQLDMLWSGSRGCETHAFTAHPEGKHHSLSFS", "test": "JAK3 inhibition assay", "format": "biochemical"}, "TNF-alpha release": {"tested_on": "TNF-alpha release", "test": "Septic shock model (LPS-induced TNF release)", "format": "in vivo, mouse", "details": "30 mg/kg po, BALB/cJ mice, LPS ip; statistically significant", "description": "Injection of lipopolysaccharide (LPS) induces a rapid release of soluble tumour necrosis factor (TNF-alpha) into the periphery. This model is used to analyse prospective blockers of TNF release in vivo.\nSix BALB/cJ female mice (20 g) per group were treated at the intended dosing once, po. Thirty minutes later, LPS (15 μg/kg; E. Coli serotype 0111:B4) was injected ip. Ninety minutes later, mice were euthanized and blood was collected. Circulating TNF alpha levels were determined using commercially available ELISA kits. Dexamethasone (5 μg/kg) was used as a reference anti-inflammatory compound. Selected compounds are tested at one or multiple doses, e.g. 3 and/or 10 and/or 30 mg/kg, po."}}, "note": "Like-named read-outs stand apart in the source and are kept apart here."}
{"smiles": "CC1CCCN(C(=O)c2ccc(-c3cccc4nc(NC(=O)C5CC5)nn34)cc2)C1", "note": "(stereo not shown) [Compound 145, N-(5-(4-(3-methylpiperidine-1-carbonyl)phenyl)-[1,2,4]triazolo[1,5-a]pyridin-2-yl)cyclopropanecarboxamide]", "values": [{"measurement": "IC50", "setting": "[1]; semi-quantitative score", "value": "< 100", "unit": "nM"}, {"measurement": "EC50", "setting": "MMP13 in SW1353 cells", "value": "> 1000", "unit": "nM"}, {"measurement": "Microsomal Stability Human (%)", "setting": "[2]", "value": "*** (*** 51-75)"}]}
{"smiles": "CC1CN(C(=O)c2ccc(-c3cccc4nc(NC(=O)C5CC5)nn34)cc2)CC(C)O1", "note": "(stereo not shown) [Compound 215, Cyclopropanecarboxylic acid {5-[4-(2,6-dimethyl-morpholine-4-carbonyl)-phenyl]-[1,2,4]triazolo[1,5-a]pyridin-2-yl}-amide]", "values": [{"measurement": "IC50", "setting": "[1]; semi-quantitative score", "value": "< 100", "unit": "nM"}, {"measurement": "IC50", "setting": "[3]", "value": "101 to 500", "unit": "nM"}, {"measurement": "IC50", "setting": "[4]; semi-quantitative score", "value": "< 100", "unit": "nM"}, {"measurement": "EC50", "setting": "MMP13 in SW1353 cells", "value": "> 1000", "unit": "nM"}, {"measurement": "reduction in the TNF release", "setting": "TNF-alpha release", "value": "> 50", "unit": "%"}, {"measurement": "Microsomal Stability Human (%)", "setting": "[2]", "value": "**** (**** 76-100)"}]}
{"smiles": "N#Cc1ccc(COc2ccc(-c3cccc4nc(NC(=O)C5CC5)nn34)cc2)cn1", "note": "[Compound 176, N-(5-(4-((6-cyanopyridin-3-yl)methoxy)phenyl)-[1,2,4]triazolo[1,5-a]pyridin-2-yl)cyclopropanecarboxamide]", "values": [{"measurement": "IC50", "setting": "[1]", "value": "< 100", "unit": "nM"}, {"measurement": "IC50", "setting": "[3]", "value": "< 100", "unit": "nM"}, {"measurement": "IC50", "setting": "[4]", "value": "< 100", "unit": "nM"}, {"measurement": "EC50", "setting": "MMP13 in SW1353 cells", "value": "1 to 500", "unit": "nM"}, {"measurement": "reduction in the TNF release", "setting": "TNF-alpha release", "value": "> 50", "unit": "%"}, {"measurement": "Microsomal Stability Human (%)", "setting": "[2]", "value": "**** (**** 76-100)"}]}
{"smiles": "O=C(Nc1nc2cccc(-c3ccc(CN4CCOCC4)cc3)n2n1)C1CC1", "note": "[Compound 18, N-(5-(4-(morpholinomethyl)phenyl)-[1,2,4]triazolo[1,5-a]pyridin-2-yl)cyclopropanecarboxamide]", "values": [{"measurement": "IC50", "setting": "[3]", "value": "> 1000", "unit": "nM"}, {"measurement": "IC50", "setting": "[4]; semi-quantitative score", "value": "> 1000", "unit": "nM"}, {"measurement": "EC50", "setting": "MMP13 in SW1353 cells", "value": "> 1000", "unit": "nM"}, {"measurement": "reduction in the TNF release", "setting": "TNF-alpha release", "value": "> 50", "unit": "%"}, {"measurement": "Microsomal Stability Human (%)", "setting": "[2]", "value": "**** (**** 76-100)"}]}
{"smiles": "CC1(C)CN(C(=O)c2ccc(-c3cccc4nc(NC(=O)C5CC5)nn34)cc2)C1", "note": "[Compound 330, Cyclopropanecarboxylic acid (5-[4-(3,3-dimethyl-azetidine-1-carbonyl)-phenyl]-[1,2,4]triazolo[1,5-a]pyridin-2-yl}-amide]", "values": [{"measurement": "IC50", "setting": "[1]; semi-quantitative score", "value": "< 100", "unit": "nM"}, {"measurement": "IC50", "setting": "[3]", "value": "101 to 500", "unit": "nM"}, {"measurement": "IC50", "setting": "[4]; semi-quantitative score", "value": "101 to 500", "unit": "nM"}, {"measurement": "EC50", "setting": "MMP13 in SW1353 cells", "value": "501 to 1000", "unit": "nM"}, {"measurement": "Microsomal Stability Human (%)", "setting": "[2]", "value": "**** (**** 76-100)"}]}
